Experimental data from patent US20190185479A1, “BICYCLIC NITROGENATED HETEROCYCLIC COMPOUND” (MITSUBISHI TANABE PHARMA CORPORATION, priority 2016, published 2019).

What was measured:
Type in all cases: biochemical
hPDE1A = target: T1, hPDE1A (Homo sapiens, UniProt P54750); experiment: PDE7 selectivity test (Ki value), Experimental Example 2: hPDE1A; details: Ki from IC50 by Cheng-Prusoff, read-out: PDE inhibition constant Ki, PDE1
T1 construct: purchased SB Drug Discovery
Description: (§1) hPDE1A, hPDE2A, hPDE3A, hPDE4D, hPDE5A, and hPDE8B were purchased from SB Drug Discovery. hPDE7B was isolated by the same method as [Method for preparing samples 1], and hPDE9A, hPDE10A, and hPDE11A were isolated by the same method as hPDE7B, i.e., isolated from COS-7 cells transfected with plasmids encoding each PDE. PDE6 was purified and isolated from bovine retina (bovine PDE6).
(§2) Prior to the calculation of Ki value, Km value of each PDE against cAMP or cGMP was calculated. Each PDE diluted with an assay buffer so that it would have an appropriate enzyme activity, and six or more concentrations of cAMP or cGMP were reacted at room temperature for 60 minutes. Regarding PDE using cAMP as a substrate, PDELight (trademark) HTS cAMP phosphodiesterase Kit (Lonza) was used to measure a degradation product, 5′-AMP. Also, regarding PDE using cGMP as a substrate, […] of perchloric acid was added to the mixture to stop the reaction, and the resulting mixture was subjected to LC-MS/MS to measure the residual cGMP concentration. The amount of degraded substrate in each substrate concentration was calculated, the concentration of the added substrate was plotted on the horizontal axis, the amount of degraded substrate was plotted on the vertical axis, and Km value was calculated by non-linear regression on the basis of Michaelis-Menten equation. Km value (substrate) of each PDE was hPDE1A: 4.3 (cGMP), hPDE2A: 36 (cAMP), hPDE3A: 0.11 (cAMP), hPDE4D: 0.90 (cAMP), hPDE5A: 3.9 (cGMP), bovine PDE6:9.8 (cGMP), hPDE7B: 0.015 (cAMP), hPDE8B: 0.63 (cAMP), hPDE9A: 0.0037 (cGMP), hPDE10A: 0.051 (cAMP), and hPDE11A: 1.4 (cAMP) μmol/L, respectively.
(§3) Next, PDE inhibition assay of a compound was carried out using each PDE. The PDE inhibition assay was basically carried out by the same enzyme reaction method as [Assay procedure 1], and the degraded amount of cAMP or cGMP was measured by the same method as [Assay procedure 2]. In the assay, a concentration approximated to Km value of each PDE against cAMP or cGMP was used as a substrate concentration. Meanwhile, regarding hPDE5A, hPDE8B, and hPDE9A, IMAP (trademark) FP Phosphodiesterase Evaluation Assay Kit (Molecular Devices) was used to measure the degradation of FAM-cAMP or FAM-cGMP by fluorescence depolarization technique.
(§4) Each compound was evaluated at six or more concentrations with common ratio 10. Each inhibition rate was calculated according to <Method for data calculation 1>, and then each IC50 value was calculated by sigmoid regression. The resulting IC50 value was used in the following Cheng-Prusoff equation to calculate each Ki value. Ki=IC50/(1+[S]/Km), wherein [S] represents a substrate concentration used

hPDE3A = target: T2, hPDE3A (Homo sapiens, UniProt Q14432); experiment: PDE7 selectivity test (Ki value), Experimental Example 2: hPDE3A; details: Ki from IC50 by Cheng-Prusoff, read-out: PDE inhibition constant Ki, PDE3
T2 construct: purchased SB Drug Discovery
Description: as §1, §2, §3, §4

hPDE10A = hPDE10A (Homo sapiens, UniProt Q9Y233); experiment: PDE7 selectivity test (Ki value), Experimental Example 2: hPDE10A; details: Ki from IC50 by Cheng-Prusoff, read-out: PDE inhibition constant Ki, PDE10
Description: as §1, §2, §3, §4

hPDE7B = target: T3, hPDE7B (Homo sapiens, UniProt Q9NP56); experiment: PDE7 selectivity test (Ki value), Experimental Example 2: hPDE7B; details: Ki from IC50 by Cheng-Prusoff, read-out: PDE inhibition constant Ki, PDE7
T3 construct: made in house; host or cells: COS-7 cells
Description: as §1, §2, §3, §4

hPDE8B [1] = target: T4, hPDE8B (Homo sapiens, UniProt O95263); experiment: PDE8 inhibition assay (IC50), Experimental Example 3; details: hPDE8B; read-out: PDE inhibition assay IC50, PDE8
T4 construct: purchased SB Drug Discovery
Method in brief: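 Recombinant human enzymes incubated with compound and 3 nmol/L cAMP (final) in Tris-HCl pH 7.5 buffer with MgCl2, BSA, DTT, 2% DMSO final, 60 min at room temperature. Residual cAMP measured by TR-FRET (LANCE Ultra), reaction stopped with 0.5 mmol/L IBMX. IC50 from inhibition relative to no-compound (0%) and no-enzyme (100%) controls.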

hPDE8B [2] = target: T4, hPDE8B; experiment: PDE7 selectivity test (Ki value), Experimental Example 2: hPDE8B; details: Ki from IC50 by Cheng-Prusoff, read-out: PDE inhibition constant Ki, PDE8
Description: as §1, §2, §3, §4

hPDE2A = target: T5, hPDE2A (Homo sapiens, UniProt O00408); experiment: PDE7 selectivity test (Ki value), Experimental Example 2: hPDE2A; details: Ki from IC50 by Cheng-Prusoff, read-out: PDE inhibition constant Ki, PDE2
T5 construct: purchased SB Drug Discovery
Description: as §1, §2, §3, §4

hPDE11A = target: T6, hPDE11A (Homo sapiens, UniProt Q9HCR9); experiment: PDE7 selectivity test (Ki value), Experimental Example 2: hPDE11A; details: Ki from IC50 by Cheng-Prusoff, read-out: PDE inhibition constant Ki, PDE11
T6 construct: made in house; host or cells: COS-7 cells
Description: as §1, §2, §3, §4

T6 sequence (Q9HCR9 whole entry): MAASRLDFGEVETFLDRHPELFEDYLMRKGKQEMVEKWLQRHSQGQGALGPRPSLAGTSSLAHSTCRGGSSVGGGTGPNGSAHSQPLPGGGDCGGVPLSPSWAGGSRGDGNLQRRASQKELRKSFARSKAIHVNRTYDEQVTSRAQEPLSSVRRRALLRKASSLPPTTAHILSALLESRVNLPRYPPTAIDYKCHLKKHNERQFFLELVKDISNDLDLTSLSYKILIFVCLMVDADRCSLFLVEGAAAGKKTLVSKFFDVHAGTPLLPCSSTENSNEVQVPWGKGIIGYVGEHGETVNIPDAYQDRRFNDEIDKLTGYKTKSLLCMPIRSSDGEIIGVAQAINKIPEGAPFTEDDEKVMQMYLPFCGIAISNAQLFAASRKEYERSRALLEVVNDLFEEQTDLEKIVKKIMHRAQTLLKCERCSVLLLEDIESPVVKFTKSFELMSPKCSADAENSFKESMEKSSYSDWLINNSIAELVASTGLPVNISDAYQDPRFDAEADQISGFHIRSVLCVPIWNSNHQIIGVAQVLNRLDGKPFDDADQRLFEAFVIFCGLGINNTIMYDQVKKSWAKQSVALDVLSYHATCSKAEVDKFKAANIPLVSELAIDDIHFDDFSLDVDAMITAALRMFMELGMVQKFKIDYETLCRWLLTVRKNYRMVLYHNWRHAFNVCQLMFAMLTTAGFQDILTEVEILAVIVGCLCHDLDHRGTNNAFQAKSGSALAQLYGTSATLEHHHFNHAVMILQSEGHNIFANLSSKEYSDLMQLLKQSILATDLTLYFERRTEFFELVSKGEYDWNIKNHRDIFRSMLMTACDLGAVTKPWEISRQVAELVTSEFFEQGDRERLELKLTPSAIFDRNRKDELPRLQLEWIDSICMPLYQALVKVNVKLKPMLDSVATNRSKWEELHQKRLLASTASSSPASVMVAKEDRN
T2 sequence (Q14432 whole entry): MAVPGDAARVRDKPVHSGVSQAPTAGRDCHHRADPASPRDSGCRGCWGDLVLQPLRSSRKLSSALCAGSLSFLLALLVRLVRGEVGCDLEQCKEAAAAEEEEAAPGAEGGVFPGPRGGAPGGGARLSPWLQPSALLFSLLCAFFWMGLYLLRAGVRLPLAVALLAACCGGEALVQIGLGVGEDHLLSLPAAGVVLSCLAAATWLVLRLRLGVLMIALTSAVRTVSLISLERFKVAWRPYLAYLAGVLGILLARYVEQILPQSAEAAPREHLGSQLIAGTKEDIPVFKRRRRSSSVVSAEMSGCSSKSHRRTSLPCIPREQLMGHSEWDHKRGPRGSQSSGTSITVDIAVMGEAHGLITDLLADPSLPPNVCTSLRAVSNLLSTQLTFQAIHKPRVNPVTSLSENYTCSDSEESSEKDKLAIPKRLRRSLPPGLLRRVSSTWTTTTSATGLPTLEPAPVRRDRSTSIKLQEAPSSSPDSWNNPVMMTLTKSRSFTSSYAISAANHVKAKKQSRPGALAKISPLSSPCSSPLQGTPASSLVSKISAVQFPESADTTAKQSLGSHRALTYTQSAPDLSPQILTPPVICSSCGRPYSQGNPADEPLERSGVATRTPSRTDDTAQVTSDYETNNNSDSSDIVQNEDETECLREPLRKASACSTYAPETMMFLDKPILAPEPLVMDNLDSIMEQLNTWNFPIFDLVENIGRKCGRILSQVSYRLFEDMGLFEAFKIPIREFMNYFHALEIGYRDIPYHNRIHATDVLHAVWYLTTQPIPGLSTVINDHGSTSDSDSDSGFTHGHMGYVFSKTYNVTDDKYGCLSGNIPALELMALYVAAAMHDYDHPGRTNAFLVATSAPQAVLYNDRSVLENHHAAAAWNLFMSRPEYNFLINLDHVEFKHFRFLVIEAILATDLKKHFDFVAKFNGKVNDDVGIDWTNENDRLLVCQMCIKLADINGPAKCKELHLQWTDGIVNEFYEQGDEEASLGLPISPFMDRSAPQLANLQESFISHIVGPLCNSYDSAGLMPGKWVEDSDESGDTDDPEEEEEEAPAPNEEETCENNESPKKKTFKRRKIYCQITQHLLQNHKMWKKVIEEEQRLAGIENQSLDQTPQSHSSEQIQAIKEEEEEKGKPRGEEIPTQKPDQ
T4 sequence (O95263 whole entry): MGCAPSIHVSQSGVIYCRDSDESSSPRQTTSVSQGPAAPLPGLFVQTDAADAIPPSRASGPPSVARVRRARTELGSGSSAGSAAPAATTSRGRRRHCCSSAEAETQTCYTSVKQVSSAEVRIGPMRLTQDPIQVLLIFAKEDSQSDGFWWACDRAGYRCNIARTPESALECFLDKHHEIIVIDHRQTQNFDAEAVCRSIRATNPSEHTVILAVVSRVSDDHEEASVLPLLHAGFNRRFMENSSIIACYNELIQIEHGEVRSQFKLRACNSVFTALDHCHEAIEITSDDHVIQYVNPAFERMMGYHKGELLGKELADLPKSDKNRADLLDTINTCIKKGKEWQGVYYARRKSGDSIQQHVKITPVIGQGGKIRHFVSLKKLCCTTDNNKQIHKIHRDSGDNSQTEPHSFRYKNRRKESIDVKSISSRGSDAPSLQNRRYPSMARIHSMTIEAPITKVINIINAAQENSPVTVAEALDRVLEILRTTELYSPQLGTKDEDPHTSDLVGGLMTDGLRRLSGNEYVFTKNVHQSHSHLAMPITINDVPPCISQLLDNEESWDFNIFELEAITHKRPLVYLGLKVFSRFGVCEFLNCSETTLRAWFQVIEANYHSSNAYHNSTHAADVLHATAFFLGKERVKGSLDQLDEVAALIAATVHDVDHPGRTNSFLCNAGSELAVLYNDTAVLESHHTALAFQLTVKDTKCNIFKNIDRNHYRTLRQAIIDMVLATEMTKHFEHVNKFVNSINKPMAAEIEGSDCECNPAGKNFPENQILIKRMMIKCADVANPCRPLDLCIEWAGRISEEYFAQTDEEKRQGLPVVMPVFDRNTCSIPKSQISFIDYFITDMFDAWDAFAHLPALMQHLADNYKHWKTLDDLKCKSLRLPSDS
T3 sequence (Q9NP56 whole entry): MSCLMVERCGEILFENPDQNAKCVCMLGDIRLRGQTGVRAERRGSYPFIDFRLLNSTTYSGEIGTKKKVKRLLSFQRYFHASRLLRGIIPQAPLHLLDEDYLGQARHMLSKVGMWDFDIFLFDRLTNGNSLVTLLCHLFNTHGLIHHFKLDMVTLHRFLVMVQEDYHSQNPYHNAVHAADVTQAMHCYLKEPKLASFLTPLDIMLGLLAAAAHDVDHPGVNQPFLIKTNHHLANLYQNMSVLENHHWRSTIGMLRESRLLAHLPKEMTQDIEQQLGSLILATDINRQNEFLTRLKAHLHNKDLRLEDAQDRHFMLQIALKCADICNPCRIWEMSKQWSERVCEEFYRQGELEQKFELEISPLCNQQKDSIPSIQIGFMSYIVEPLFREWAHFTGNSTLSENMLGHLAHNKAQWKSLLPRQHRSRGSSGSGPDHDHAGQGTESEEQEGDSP
hPDE10A, sequence (Q9Y233 290-1055 limits assumed): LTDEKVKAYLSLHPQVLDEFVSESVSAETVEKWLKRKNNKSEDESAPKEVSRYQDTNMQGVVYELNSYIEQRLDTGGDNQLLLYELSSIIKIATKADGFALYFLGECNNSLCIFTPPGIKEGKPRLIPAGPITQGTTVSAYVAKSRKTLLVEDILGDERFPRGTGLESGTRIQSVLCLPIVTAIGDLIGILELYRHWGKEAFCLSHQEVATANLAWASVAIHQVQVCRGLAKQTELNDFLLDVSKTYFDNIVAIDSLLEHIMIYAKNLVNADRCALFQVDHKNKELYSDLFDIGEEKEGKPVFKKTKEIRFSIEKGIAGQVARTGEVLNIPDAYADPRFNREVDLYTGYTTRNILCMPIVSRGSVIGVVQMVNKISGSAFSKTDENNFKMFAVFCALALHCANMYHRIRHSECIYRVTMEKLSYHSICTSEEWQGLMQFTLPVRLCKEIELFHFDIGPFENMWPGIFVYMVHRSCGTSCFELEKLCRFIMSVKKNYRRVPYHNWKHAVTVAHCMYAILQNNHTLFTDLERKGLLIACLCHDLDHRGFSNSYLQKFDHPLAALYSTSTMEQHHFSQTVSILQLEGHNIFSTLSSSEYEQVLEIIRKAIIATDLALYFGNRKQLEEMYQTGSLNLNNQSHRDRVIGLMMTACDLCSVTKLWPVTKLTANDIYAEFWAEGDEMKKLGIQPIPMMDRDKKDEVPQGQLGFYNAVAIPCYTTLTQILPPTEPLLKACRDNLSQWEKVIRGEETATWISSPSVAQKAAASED
T1 sequence (P54750 whole entry): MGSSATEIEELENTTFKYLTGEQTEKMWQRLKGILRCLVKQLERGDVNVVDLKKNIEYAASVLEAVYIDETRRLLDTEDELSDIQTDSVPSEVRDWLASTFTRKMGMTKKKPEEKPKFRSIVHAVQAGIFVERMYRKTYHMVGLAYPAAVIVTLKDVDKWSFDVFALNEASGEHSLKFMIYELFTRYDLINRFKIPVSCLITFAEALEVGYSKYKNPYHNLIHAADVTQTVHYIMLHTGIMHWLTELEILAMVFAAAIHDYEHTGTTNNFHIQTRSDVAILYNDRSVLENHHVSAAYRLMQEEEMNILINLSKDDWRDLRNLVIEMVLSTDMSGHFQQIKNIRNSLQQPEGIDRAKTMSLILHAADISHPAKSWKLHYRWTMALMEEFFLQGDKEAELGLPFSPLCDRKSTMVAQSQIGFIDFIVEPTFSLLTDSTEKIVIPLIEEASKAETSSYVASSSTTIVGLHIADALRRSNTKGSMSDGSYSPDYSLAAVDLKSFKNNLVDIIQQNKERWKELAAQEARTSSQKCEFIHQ

SMILES	Ki (hPDE1A) [µM]	Ki (hPDE3A) [µM]	Ki (hPDE10A) [µM]	Ki (hPDE7B) [µM]	IC50 (hPDE8B [1]) [µM]	Ki (hPDE8B [2]) [µM]	Ki (hPDE2A) [µM]	Ki (hPDE11A) [µM]
Nc1nccn2c(C3CCCCC3)nnc12 [Example 141, 3-cyclohexyl[1,2,4]triazolo[4,3-a]pyrazin-8-amine]	> 5.2	> 5.2	> 5.1	0.031	1.77	1.4	> 5.1	> 5
Cc1nc(N)c2nnn(C3CCCCC3)c2n1 [Example 4]	> 5.2	> 5.2	1.1	0.027		0.085	6.6	> 5
Nc1ncnc2c1nnn2C1CCCCC1 [Example 3, 3-cyclohexyl-3H-[1,2,3]triazolo[4,5-d]pyrimidin-7-amine]	> 52	> 52	12	0.031	0.7	0.77	27	29

Further lines, results first:

Ki (hPDE1A) [µM]	Ki (hPDE3A) [µM]	Ki (hPDE10A) [µM]	Ki (hPDE7B) [µM]	IC50 (hPDE8B [1]) [µM]	Ki (hPDE8B [2]) [µM]	Ki (hPDE2A) [µM]	Ki (hPDE11A) [µM]	SMILES
39	> 52	2.4	0.012	5.33	5.3	10		CC1CCCCC1n1nnc2c(N)ncnc21 (single isomer, unassigned) [Example 191, 3-(cis-2-methylcyclohexyl)-3H-[1,2,3]triazolo[4,5-d]pyrimidin-7-amine]
8.9	43	2.6	0.003	1.75	1.4	14	46	C[C@@H]1CCC[C@H](c2nnc3c(N)nccn23)C1 [Example 204, 3-[(1S,3R)-3-methylcyclohexyl][1,2,4]triazolo[4,3-a]pyrazin-8-amine]
